One assay concerns the target KRas G12C (Homo sapiens, UniProt P01116, C118S/C51S/C80L/G12C). The assay is described as follows: KRas G12C Modification Assay (LCMS detection of covalent adduct). It is filed as binding. Particulars: normalized percent of control; tested at 5 μM concentration for 3 hours. The method in brief:
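Covalent modification was read by reverse-phase LC/MS of intact protein after compound exposure, each reaction stopped at its time point with 25 mM acetic acid. Unmodified-protein signal, taken as percent of total, was normalised to untreated protein and reported as POC.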

In assay [1] the test system is NCI-H358 cells (express KRas G12C), Phospho-ERK. The assay is described as follows: Cellular inhibition of KRas G12C: Phospho-ERK in NCI-H358 cells. It is filed as cell-based. Particulars: Homo sapiens, pERK(Thr202/Tyr204) normalized with GAPDH, NCI-H358 cells, 3 hours, read-out: IC50. In outline: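 IC50 derived by 4-parameter fit of GAPDH-normalized pERK(Thr202/Tyr204) signal, as percent of DMSO control. Signal came from in-cell immunodetection with infrared secondaries after 3 h compound exposure of KRas G12C NCI-H358 cells at 0.5% DMSO.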

Where two headings read alike, the source gives them in different places.

Eight molecules from patent US10125134B2 (Mirati Therapeutics, Inc., priority 2016, dated 2018) can be followed below.

For orientation: IC50 means the concentration that inhibits the measured activity by half.

Turning to `C=CC(=O)N1CCN(c2nc(OC[C@@H]3CCCN3C)nc3c2CCN(c2cccc4ccccc24)C3)C[C@@H]1CC#N` [Example 234, 2-((S)-1-acryloyl-4-(2-(((S)-1-methylpyrrolidin-2-yl)methoxy)-7-(naphthalen-1-yl)-5,6,7,8-tetrahydropyrido[3,4-d]pyrimidin-4-yl)piperazin-2-yl)acetonitrile], on KRas G12C, the POC entry is given as “C (“C”>50% POC)”. Besides, in assay [1], the IC50 was 0.1 to 1000 nM.
Consider `CN(C)C/C=C/C(=O)N1CCN(c2nc(OC[C@@H]3CCCN3C)nc3c2CCN(c2cccc4ccccc24)C3)C[C@@H]1CC#N` [Example 235, 2-((S)-1-((E)-4-(dimethylamino)but-2-enoyl)-4-(2-(((S)-1-methylpyrrolidin-2-yl)methoxy)-7-(naphthalen-1-yl)-5,6,7,8-tetrahydropyrido[3,4-d]pyrimidin-4-yl)piperazin-2-yl)acetonitrile], for which the POC result at KRas G12C is listed as “C (“C”>50% POC)”. Also, the IC50 in assay [1] (NCI-H358, 3 h) lay within 0.1 to 1000 nM.
The like results for `CN1CCC[C@H]1COc1nc2c(c(N3CCN(C(=O)/C=C/CN4CCCCC4)[C@@H](CC#N)C3)n1)CCN(c1cccc3ccccc13)C2` [Example 236, 2-((S)-4-(2-(((S)-1-methylpyrrolidin-2-yl)methoxy)-7-(naphthalen-1-yl)-5,6,7,8-tetrahydropyrido[3,4-d]pyrimidin-4-yl)-1-(E-4-(piperidin-1-yl)but-2-enoyl)piperazin-2-yl)acetonitrile] were, in that order, “C (“C”>50% POC)” and 0.1 to 1000 nM.
`C=CC(=O)N1CCN(c2nc(OC[C@@H]3CCCN3C)nc3c2CCN(c2ccccc2C(F)(F)F)C3)C[C@@H]1CC#N` [Example 237, 2-((S)-1-acryloyl-4-(2-(((S)-1-methylpyrrolidin-2-yl)methoxy)-7-(2-(trifluoromethyl)phenyl)-5,6,7,8-tetrahydropyrido[3,4-d]pyrimidin-4-yl)piperazin-2-yl)acetonitrile 2,2,2-trifluoroacetate]: the POC entry on KRas G12C is “C (“C”>50% POC)”. Moreover, the IC50 in assay [1] (NCI-H358, 3 h) fell in the range of 0.1 to 1000 nM.
Consider `C=CC(=O)N1CCN(c2nc(OC[C@@H]3CCCN3C)nc3c2CCN(c2c(C)ccc4cn[nH]c24)C3)CC1CC#N` (stereo partly drawn) [Example 238, 2-(1-acryloyl-4-(7-(6-methyl-1H-indazol-7-yl)-2-(((S)-1-methylpyrrolidin-2-yl)methoxy)-5,6,7,8-tetrahydropyrido[3,4-d]pyrimidin-4-yl)piperazin-2-yl)acetonitrile], for which the POC result on KRas G12C is recorded as “C (“C”>50% POC)”. In addition, in assay [1] (NCI-H358, 3 h), the IC50 lay within 0.1 to 1000 nM.
As for `C=CC(=O)N1CCN(c2nc(OC[C@@H]3CCCN3C)nc3c2CCN(c2ccncc2C(F)(F)F)C3)CC1CC#N` (stereo partly drawn) [Example 239, 2-(1-acryloyl-4-(2-(((S)-1-methylpyrrolidin-2-yl)methoxy)-7-(3-(trifluoromethyl)pyridin-4-yl)-5,6,7,8-tetrahydropyrido[3,4-d]pyrimidin-4-yl)piperazin-2-yl)acetonitrile], the POC result at KRas G12C is “C (“C”>50% POC)”. For the same molecule, the IC50 in assay [1] (NCI-H358, 3 h) is > 1000 nM.
On the same counts, the results for `C=CC(=O)N1CCN(c2nc(OC[C@@H]3CCCN3C)nc3c2CCN(c2ccccc2CC(F)(F)F)C3)CC1CC#N` (stereo partly drawn) [Example 240, 2-(1-acryloyl-4-(2-(((S)-1-methylpyrrolidin-2-yl)methoxy)-7-(2-(2,2,2-trifluoroethyl)phenyl)-5,6,7,8-tetrahydropyrido[3,4-d]pyrimidin-4-yl)piperazin-2-yl)acetonitrile] are “C (“C”>50% POC)” and > 1000 nM.
In the case of `CN1CCC[C@H]1COc1nc2c(c(N3CCN(C(=O)OCc4ccccc4)C(CC#N)C3)n1)CCN(c1ncccc1C(F)(F)F)C2` (stereo partly drawn) [Example 241, benzyl 2-(cyanomethyl)-4-(2-(((S)-1-methylpyrrolidin-2-yl)methoxy)-7-(3-(trifluoromethyl)pyridin-2-yl)-5,6,7,8-tetrahydropyrido[3,4-d]pyrimidin-4-yl)piperazine-1-carboxylate], the POC result on KRas G12C is given as “C (“C”>50% POC)”. In assay [1] (NCI-H358, 3 h), the IC50 is > 1000 nM.
